Key:
[1] = system: ristocetin-induced platelet aggregation; experiment: Ristocetin-induced platelet aggregation (RIPA) ex vivo in blood of treated baboons
Protocol: Platelet aggregations were performed on a Chronolog whole blood and optical Aggregometer (Model 560CA, Chronolog, USA). PRP was prepared (collected on 0.38 mol/L citrate), by centrifuging the whole blood at 1200 rpm for 5 minutes. The upper fraction containing the PRP was carefully removed. The lower fraction was further centrifuged at 3000 rpm for 10 minutes to prepare platelet poor plasma (PPP). Platelets were counted in PRP and diluted in PPP to a final concentration of 200.000 platelets per microliter. 3 mg/ml ristocetin (DAKO) was added and aggregation was measured.
The GPIb-IX-V dependent platelet aggregation through vWF is measured using ristocetin as a modulator. The % aggregation is measured at each time point and at each dose.

[2] = system: cyclic flow reductions (CFRs) in injured, stenosed femoral artery; experiment: Use of vWF as an antidote for ALX-0081 in the baboon Folts model; format: in vivo, baboon (Papio ursinus)
Text: The experimental procedure followed the original Folts model with the modifications as described in the previous example 18.
Healthy male baboons (Papio ursinus) were used in this study. The animals were 9-12 kg of weight and were disease-free for at least 2 weeks prior to use. The baboons were fed with dry standard food only.

[3] = system: platelet adhesion to endothelial cell-derived ULvWF; experiment: Platelet string formation on ULvWF of histamine-stimulated endothelial cells (perfusion); format: cell-based, human; conditions: 0.2, 2 and 10 μg/ml; platelets in buffer or TTP plasma; 2.5 dyn/cm2, 4 minutes
Protocol: Endothelial cells were obtained from human umbilical cord veins by the method of Maruyama (Z. Zellforsch. Mikrosk. A4nat. 60:69; 1963). Endothelial cells were activated with 100 μM histamine (Sigma-Aldrich, St Louis, Mo.) for 15 minutes at room temperature before the perfusion experiments.
Blood was drawn from healthy volunteers who denied ingestion of aspirin or other nonsteroidal anti-inflammatory drugs (NSAIDs) for the preceding 10 days into one-tenth volume 3.4% sodium citrate. Platelet-rich plasma (PRP) was prepared from whole blood by centrifugation (10 minutes at 200 g at room temperature). […] The platelet pellet was resuspended in HEPES (N-2-hydroxyethylpiperazine-N′-2-ethanesulfonic acid)-Tyrode buffer (10 mM HEPES, 137 mM NaCl, 2.68 mM KCl, 0.42 mM NaH2PO4, 1.7 mM MgCl2, 5 mM D-glucose, pH 6.5). Prostacyclin (PGI2, 10 ng/mL) was added to prevent platelet activation during the subsequent washing step. Platelets were spun down and resuspended in a small volume of HEPES-Tyrode buffer. This platelet suspension was diluted in HEPES buffer at pH 7.4, or in TTP plasma. […]
Endothelial cells were isolated from freshly obtained human umbilical cords by collagenase digestion of the interior of the umbilical vein. […] These ULvWF-adhered platelets appear as so-called ‘strings’, which are visible when the perfusion experiment is monitored by real-time video microscopy (FIG. 41). […]

Substance: ALX-0081: ALX-0081 (SEQ ID NO:98), Nanobody; humanised bivalent nanobody with the 3a linker
- relation between RIPA and the length of the CFRs ([1]; 3 mg/ml ristocetin): inverse relation
- dose for full inhibition in RIPA versus full inhibition of CFRs ([1]; baboons 16, 18, 19 and 23): full inhibition in the RIPA test is obtained at lower doses than full inhibition of CFRs
- Length of CFRs ([2]; 30 μg/kg + 45 μg/kg/hour ALX-0081, baboons 1-3): >1800 s
- dose at which full inhibition of CFRs was obtained ([2]; all three baboons, bolus followed by 45 μg/kg/hour): 30 µg/kg
- CFRs upon a new injury ([2]; at 30 μg/kg+45 μg/kg/hour ALX-0081): the CFRs did not return
- string formation of platelets on ULvWF [3]: complete inhibition of string formation

Source: patent US7807162B2, “Single domain VHH antibodies against von Willebrand factor” (Ablynx N.V., priority 2005, dated 2010)
